Results taken from patent publication US11360080B2, “AhR-ROR-γt complex as a biomarker and therapeutic target for autoimmune disease and IL-17A-associated disease” (NATIONAL HEALTH RESEARCH INSTITUTES, priority 2018, dated 2022).
pIC50: −log10 of the molar value. Counter-ions that a name gives are not always drawn.

Experiments:
[1] = biological target: T1, GLK (MAP4K3) (Homo sapiens, UniProt Q8IVH8); assay: In vitro kinase assay, recombinant kinase domain, myelin basic protein (MBP) as substrate; format: biochemical
T1 construct: Recombinant proteins of kinase domains of various MAP4Ks were used
Method: GLK kinase activity was determined by measuring the rate of ADP production in the in vitro kinase reaction using ADP-GLO™ Kinase Assay kit. For the kinase reaction, recombinant proteins of the GLK kinase-domain (1 μg) were incubated with recombinant proteins of kinase-dead PKCθ (K409W; 0.15 μg) plus ATP (0.1 mM) or myelin basic protein (MBP) plus ATP (0.1 mM) in kinase buffer (40 mM Tris-HCl, pH7.5.20 mM MgCl2, 0.1 mg/ml BSA, 10 mM DTT and 0.1 mM Na3VO4) for 30 min at room temperature. We studied whether GLK inhibitors also suppress cancer cell migration. […] Moreover, both C1 (verteporfin) and C2 (alexidine dihydrochloride) treatments suppressed tumor growth in the xenograft mouse model using TC-1 lung cancer cells (FIG. 15). To study whether GLK deficiency results in a reduction of lung cancer metastasis, we used a metastatic Lewis lung carcinoma (LLC) mouse model by tail vein injection of luciferase-expressing LLC (LLC/luc) cells. We identified two GLK inhibitors (verteporfin and alexidine dihydrochloride)) using cell-based assays and in vitro kinase assays. […] The luciferase activity of LLC/luc cells in the mice was detected by In Vivo Imaging System. […] Inhibition of kinase activity of GLK (MAP4K3) or other MAP4Ks was determined by in vitro kinase assays using myelin basic protein (MBP) as a substrate. […]

[2] = test system: human glioma U87 cells; assay: Transwell migration assay; format: cell-based; details: C1 2 uM or 5 uM; C2 2 uM or uM
Method: (§1) Transwell migration assays of human glioma U87 cells, human pancreatic cancer Panc-1 cells, mouse lung cancer LL2 cells, or human hepatoma Huh-7 cells treated with the GLK inhibitor C1 (verteporfin) (a; 2 uM or 5 uM) or C2 (alexidine dihydrochloride) (b; 2 uM or uM). C1 denotes verteporfin; C2 denotes alexidine dihydrochloride.
(§2) For primary cell migration assays, 2×10^5 cells in […] of IMDM with 10% FBS were seeded into the upper chamber of transwells (8 μm pore size, Corning), and the lower chamber was loaded with […] of IMDM with 20% FBS. For cancer cell migration assays, 5×10^4 cells in 200 μl of RPMI 1640 with 10% FBS were seeded into the upper chamber of transwells (8 μm pore size, Corning), and the lower chamber was loaded with […] of RPMI 1640 with 10% FBS. After incubation at 37° C. for 24 h, cells migrating to the lower chamber were imaged and counted by bright-field microscopy following fixation with absolute methanol and staining with 1% crystal violet solution.

[3] = test system: human hepatoma Huh-7 cells; assay: Transwell migration assay; format: cell-based; details: C1 2 uM or 5 uM; C2 2 uM or uM
Method: as §1, §2

[4] = test system: human pancreatic cancer Panc-1 cells; assay: Transwell migration assay; format: cell-based; details: C1 2 uM or 5 uM; C2 2 uM or uM
Method: as §1, §2

[5] = test system: mouse lung cancer LL2 cells; assay: Transwell migration assay; format: cell-based; details: C1 2 uM or 5 uM; C2 2 uM or uM
Method: as §1, §2

[6] = biological target: T2, GLK−IQGAP1 complex (Mus musculus, UniProt Q99JP0); assay: In situ PLA in lung tissues of mice of the LLC/luc metastatic lung cancer model; format: in vivo
T2 construct: from tissue; host or cells: mouse lung tissue (LLC/luc metastatic lung cancer model)
Text: (A) The molecular docking of GLK kinase domain structure with C1 (verteporfin). A three-dimensional structure model depicts the binding of C1 to the predicted GLK kinase domain containing phosphorylated Ser-170. The putative binding affinity was −7.4 kcal/mol. (B) The molecular docking of GLK kinase domain structure with C2 (alexidine dihydrochloride). A three-dimensional structure model depicts the binding of C2 to the predicted GLK kinase domain containing phosphorylated Ser-170. The putative binding affinity was −7.0 kcal/mol. (C) Co-immunoprecipitation (co-IP) of Flag-tagged GLK and GFP-fusion GLK using lysates of HEK293T cells co-transfected with Flag-GLK and GFP-GLK plasmids. Cells were treated with C1 (verteporfin) or C2 (alexidine dihydrochloride). (D) Administration of the GLK inhibitor C1 (0.556 nmole/g) or C2 (0.085 nmole/g) every 3 days for 30 days in the LLC/luc metastatic lung cancer mouse model. (E) The luciferase activity in mice treated with C1 (verteporfin), C2 (alexidine dihydrochloride), or vehicle was detected by IVIS Spectrum. (F) Luminescent intensity of photons emitted from LLC/luc cells in the images in (e) was quantified. (G) Representative immunohistochemistry of H&E in lung tissues from mice treated with C1 (verteporfin), C2, or vehicle. Scale bar, 0.5 cm. (H) In situ PLA assays of the interaction between GLK and IQGAP1 (upper panel) or phosphorylated IQGAP1 Ser-480 (lower panel) in lung tissues from mice treated with C1 (verteporfin), C2 (alexidine dihydrochloride), or vehicle in the LLC/luc metastatic lung cancer mouse model. Original magnification, ×40.
For experiments using human pulmonary tissues, tissue sections were deparafinized, antigen retrieved, and nonspecific-binding blocked, followed by in situ PLA assays using primary antibodies for IQGAP1 (1:4,000, CUSABIO) plus either GLK (1:3,000, mAb clone C3) or phospho-IQGAP1 Ser-480 (1:2,000, Allbio Science). The monoclonal antibody for phosphorylated IQGAP1 Ser-480 was generated by immunization of a mouse with phospho-peptides (human IQGAP1 epitope: ^473NTVWKQL[pS] SSVTGLT^487; SEQ ID NO: 32). The tissue sections were then incubated with species-specific secondary antibodies conjugated with oligonucleotides ([…]), followed by ligation and amplification reactions. The number of PLA signals for GLK−IQGAP1 complex or phosphorylated IQGAP1 per tissue (3.14 mm^2) was counted.

T2 sequence (Q99JP0 whole entry, one chain of several): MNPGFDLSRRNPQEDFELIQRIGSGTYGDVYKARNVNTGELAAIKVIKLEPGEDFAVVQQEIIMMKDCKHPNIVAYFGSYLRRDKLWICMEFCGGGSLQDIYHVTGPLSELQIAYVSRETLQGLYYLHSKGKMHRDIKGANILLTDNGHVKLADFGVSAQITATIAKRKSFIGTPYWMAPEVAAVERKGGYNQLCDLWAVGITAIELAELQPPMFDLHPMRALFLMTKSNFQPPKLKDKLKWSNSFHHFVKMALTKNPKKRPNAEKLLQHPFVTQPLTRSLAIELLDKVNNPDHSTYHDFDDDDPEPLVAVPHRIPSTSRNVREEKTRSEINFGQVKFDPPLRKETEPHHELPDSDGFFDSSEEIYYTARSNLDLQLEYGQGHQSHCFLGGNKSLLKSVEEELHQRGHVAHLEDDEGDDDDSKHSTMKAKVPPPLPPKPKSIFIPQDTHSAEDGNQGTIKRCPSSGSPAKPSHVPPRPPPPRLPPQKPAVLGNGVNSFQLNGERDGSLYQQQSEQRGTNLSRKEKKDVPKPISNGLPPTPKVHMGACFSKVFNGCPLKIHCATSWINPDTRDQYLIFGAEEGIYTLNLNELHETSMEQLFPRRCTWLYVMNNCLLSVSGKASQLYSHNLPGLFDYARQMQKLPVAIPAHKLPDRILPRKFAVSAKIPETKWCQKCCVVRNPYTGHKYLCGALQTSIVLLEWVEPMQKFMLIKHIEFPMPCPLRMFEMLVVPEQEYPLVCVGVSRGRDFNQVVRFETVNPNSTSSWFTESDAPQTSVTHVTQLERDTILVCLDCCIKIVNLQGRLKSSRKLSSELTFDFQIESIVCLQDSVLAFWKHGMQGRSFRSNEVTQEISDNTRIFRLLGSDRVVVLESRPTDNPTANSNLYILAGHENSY
T1 sequence (Q8IVH8 16-273 limits assumed): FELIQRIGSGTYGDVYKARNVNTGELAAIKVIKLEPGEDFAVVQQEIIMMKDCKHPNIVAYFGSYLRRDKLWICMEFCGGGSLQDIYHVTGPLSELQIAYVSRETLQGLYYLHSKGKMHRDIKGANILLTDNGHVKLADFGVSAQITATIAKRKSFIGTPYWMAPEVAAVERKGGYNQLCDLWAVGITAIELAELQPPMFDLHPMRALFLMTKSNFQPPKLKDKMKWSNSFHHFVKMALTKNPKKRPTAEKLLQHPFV

pIC50 [1] | IQGAP1 (Ser-480) phosphorylation in the lung tissues [6] | interaction between GLK and IQGAP1 in the lung tissues [6] | SMILES | migration of glioma cells [2] | migration of hepatoma cells [3] | migration of pancreatic cancer cells [4] | migration of lung cancer cells [5]
8.94 | inhibited | inhibited | C=Cc1c(C)c2cc3nc(cc4[nH]c(cc5nc(cc1[nH]2)C(C)=C5CCC(=O)O)c(CCC(=O)OC)c4C)[C@@]1(C)C3=CC=C(C(=O)OC)[C@H]1C(=O)OC [C1, verteporfin] | inhibited | inhibited | inhibited | inhibited
8.00 | inhibited | inhibited | CCCCC(CC)CNC(=N)NC(=N)NCCCCCCNC(=N)NC(=N)NCC(CC)CCCC (centres unmarked) [C2, alexidine dihydrochloride] | inhibited | inhibited | inhibited | inhibited
